Results reported in patent US11992506B2, “Stem cell derived pancreatic islet differentiation” (Vertex Pharmaceuticals Incorporated, priority 2021, dated 2024).
Several values for one entry are separate records, joined by “and”; a condition that tells them apart may be missing. Equal entries are not always repeated.

Legend:
EZH2 = EZH2 (Homo sapiens, UniProt Q15910); settings: cited from earlier work
SC-islet cells = assay: Effect of additional FGF2 in stage 6 of differentiation; assay type: cell-based, human; settings: FGF2 100 ng/ml added to stage 6 media (Media A) of Protocol 3
Procedure: SC-islet cells were differentiated using Protocol 1, Protocol 2, Protocol 3, or Protocol 3 with the addition of FGF2 (at 100 ng/ml) in stage 6 media (Media A shown in Table 6). Cells were collected on S6D3, S6D7, and […] for analysis. Cells were also tested for insulin content (FIG. 35A) and glucagon content (FIG. 35B).

[1] = test system: PDX1-positive, NKX-negative cells; assay: Effects of differentiation agents on pancreatic islet cell differentiation (ISL1/NKX6.1 flow cytometry); assay type: cell-based; settings: for % of beta cells in S5D6 cell population: agents added to the base protocol on S4D5, S5D1, S5D2, FOXOi 1 μM, XAV 2 μM (present S5D1-4), TPB or PDBU 0.5 μM, XXI 2 μM
Procedure: FoxO1 inhibitor (FoxOi), Wnt inhibitor (XAV), Notch inhibitor (XXI), and/or PKC activator (PDBU or TPB) were tested for their effects on pancreatic islet cell differentiation.
PDX1-positive, NKX-negative cells were administered KGF (50 ng/ml), Sant-1 (250 nM), thiazovivin (2.5 μM), activin A (5 ng/ml), and retinoic acid (100 nM) for a period of six days (S4D1-S4D6) in a media including polyvinyl alcohol-80 (PVA-80) to generate a second population of cells. On day S4D5, the cells may also have been administered an additional reagent or combination of reagents as outlined in Table 5. After the six days, the second population of cells was administered XXI (2 μM), Alk5i (10 μM), GC-1 (1 μM), LDN-193189 (100 nM), thiazovivin (2.5 μM), staurosporine (3 nM), DZNEP (100 nM), Sant-1 (250 nM), retinoic acid (50 nM), and betacellulin (20 ng/ml) for two days (S5D1-S5D2) in a media comprising PVA-89. On days S5D1 and S5D2, the cells may also have been administered an additional reagent or combination of reagents as outlined in Table 5. On days S5D3-S5D6, the cells were administered XXI (2 μM), Alk5i (10 μM), GC-1 (1 μM), LDN-193189 (100 nM), thiazovivin (2.5 μM), staurosporine (3 nM), and DZNEP (100 nM). Cells were collected for analysis on day […].

Sequence of EZH2 (Q15910 whole entry, species assumed): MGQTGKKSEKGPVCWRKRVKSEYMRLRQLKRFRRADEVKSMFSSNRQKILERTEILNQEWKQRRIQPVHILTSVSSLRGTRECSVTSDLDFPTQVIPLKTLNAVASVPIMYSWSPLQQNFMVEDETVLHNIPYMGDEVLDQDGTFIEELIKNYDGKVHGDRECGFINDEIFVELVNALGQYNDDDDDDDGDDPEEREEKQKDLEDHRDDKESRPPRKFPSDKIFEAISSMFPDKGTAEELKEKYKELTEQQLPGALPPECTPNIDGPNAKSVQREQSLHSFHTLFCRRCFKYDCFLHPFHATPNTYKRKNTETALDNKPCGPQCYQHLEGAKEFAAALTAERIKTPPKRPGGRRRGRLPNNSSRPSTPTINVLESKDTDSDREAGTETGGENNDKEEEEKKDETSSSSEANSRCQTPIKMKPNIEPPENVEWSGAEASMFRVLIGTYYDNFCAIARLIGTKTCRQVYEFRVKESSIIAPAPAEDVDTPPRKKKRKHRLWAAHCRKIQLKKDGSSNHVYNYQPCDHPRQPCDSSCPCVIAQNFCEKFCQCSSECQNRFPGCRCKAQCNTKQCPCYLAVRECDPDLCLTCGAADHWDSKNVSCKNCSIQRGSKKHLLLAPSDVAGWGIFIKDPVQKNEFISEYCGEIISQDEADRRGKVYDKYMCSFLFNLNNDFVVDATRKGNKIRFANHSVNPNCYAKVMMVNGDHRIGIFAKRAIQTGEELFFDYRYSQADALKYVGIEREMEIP
Sequence of EZH2 (O75530 whole entry partner, species assumed): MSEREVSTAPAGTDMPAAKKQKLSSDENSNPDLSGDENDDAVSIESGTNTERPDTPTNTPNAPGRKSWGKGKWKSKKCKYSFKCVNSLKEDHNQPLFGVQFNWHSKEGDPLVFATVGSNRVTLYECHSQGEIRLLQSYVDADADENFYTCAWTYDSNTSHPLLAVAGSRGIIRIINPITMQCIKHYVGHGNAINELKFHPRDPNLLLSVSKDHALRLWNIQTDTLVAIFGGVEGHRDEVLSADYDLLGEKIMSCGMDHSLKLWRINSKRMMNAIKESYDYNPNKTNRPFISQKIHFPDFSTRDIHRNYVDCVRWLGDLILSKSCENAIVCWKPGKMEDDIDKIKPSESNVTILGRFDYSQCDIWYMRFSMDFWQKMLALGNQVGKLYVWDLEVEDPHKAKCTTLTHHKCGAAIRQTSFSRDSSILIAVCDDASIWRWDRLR
Sequence of EZH2 (Q15022 whole entry partner, species assumed): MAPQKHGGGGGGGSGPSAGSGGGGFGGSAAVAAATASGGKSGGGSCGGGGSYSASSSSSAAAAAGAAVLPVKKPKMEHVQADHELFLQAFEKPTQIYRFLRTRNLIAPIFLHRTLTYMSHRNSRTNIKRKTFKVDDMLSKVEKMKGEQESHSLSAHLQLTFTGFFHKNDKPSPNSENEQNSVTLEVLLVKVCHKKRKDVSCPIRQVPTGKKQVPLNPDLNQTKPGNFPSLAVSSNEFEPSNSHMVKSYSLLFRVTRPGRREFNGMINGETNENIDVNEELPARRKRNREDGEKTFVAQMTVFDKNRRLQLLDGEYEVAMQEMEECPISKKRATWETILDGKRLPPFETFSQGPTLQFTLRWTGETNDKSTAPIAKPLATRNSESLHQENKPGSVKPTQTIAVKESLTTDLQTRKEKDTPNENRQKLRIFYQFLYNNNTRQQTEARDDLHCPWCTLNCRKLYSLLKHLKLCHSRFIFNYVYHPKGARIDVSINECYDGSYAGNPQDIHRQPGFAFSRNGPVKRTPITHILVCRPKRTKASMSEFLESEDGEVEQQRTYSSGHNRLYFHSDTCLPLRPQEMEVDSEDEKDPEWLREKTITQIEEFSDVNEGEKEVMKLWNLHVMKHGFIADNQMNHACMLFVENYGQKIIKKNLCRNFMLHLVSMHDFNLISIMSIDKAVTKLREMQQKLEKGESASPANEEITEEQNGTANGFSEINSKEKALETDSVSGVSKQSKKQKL

Row | Molecule | % of beta cells in S5D6 cell population [1] | also measured
1 | CC[C@H](C)n1cc(C)c2c(C(=O)NCc3c(C)cc(C)[nH]c3=O)cc(-c3ccc(N4CCNCC4)nc3)cc21 [GSK126] | – | selectivity over EZH1 (EZH2; SAM-competitive EZH2 inhibitor): 150 fold
2 | CCCc1cc(C)[nH]c(=O)c1CNC(=O)c1cc(-c2ccc(N3CCN(C(C)C)CC3)nc2)cc2c1cnn2C(C)C [UNC1999] | – | selectivity compared with GSK126 (EZH2; analogue of GSK126): less selective
3 | FGF2: growth factor from the FGF family, added at 100 ng/ml in stage 6 media | – | glucagon-expressing cells (SC-alpha cells) (SC-islet cells): increases
4 | CCCC(=O)O[C@@H]1[C@@H](C)[C@@]2(O)[C@@H](C=C(CO)C[C@]3(O)C(=O)C(C)=C[C@@H]23)[C@@H]2C(C)(C)[C@]12OC(=O)CCC [PDBU, Phorbol 12,13-dibutyrate] | 28% | –
5 | CCn1cc(C(=O)O)c(=O)c2c(N)c(F)c(NC3CCCCC3)cc21 [FOXOi] | 19% and 13% | –
6 | Oc1nc(-c2ccc(C(F)(F)F)cc2)nc2c1CSCC2 [XAV] | 5% | –
7 | CC(C)[C@H]1C(=O)N[C@H](CO)Cc2cc(NC(=O)/C=C/C=C/c3ccc(C(F)(F)F)cc3)ccc2N1C [TPB, ((2S,5S)-(E,E)-8-(5-(4-(Trifluoromethyl)phenyl)-2,4-pentadienoylamino)benzolactam)] | 17% | beta cell production (in words) ([1]; agents added on S4D5 and/or S5, FIGS. 9-15): did not result in more beta cell production
